Biological target: T1, human EP4 receptors (Homo sapiens, UniProt P35408)
T1 construct: expressed in transfected cells
Experiment: cAMP assay in human EP4 transfectant
Format: cell-based
Conditions: HEK293 cells expressing human EP4 receptors; 1 nM PGE2, 0.2 mM IBMX, 37° C. for 10 min
Description: cAMP Assay in Human EP4 Transfectant HEK293 cells expressing human EP4 receptors (hEP4 cells) are maintained in DMEM containing 10% FBS and 500 μg/ml geneticin. For harvesting hEP4 cells, culture medium is aspirated and cells in 75 cm^2 flask are washed with 10 ml of phosphate buffered saline (PBS). Another 10 ml of PBS is added to the cells and incubated for 20 min at room temperature. Human EP4 cells are harvested by pipetting and centrifuged at 300×g for 4 min. Cells are resuspended in DMEM without neutral red at a density of 7×10^5 cells/ml containing 0.2 mM IBMX (PDE inhibitor), 1 nM PGE2 and test compounds in PCR-tubes, and incubated at 37° C. for 10 min. The reaction is stopped by heating at 100° C. for 10 min with thermal cycler. Concentration of cAMP in reaction mixtures is determined with SPA cAMP Kit (Amersham) or cAMP Screen™ (Applied Biosystems) according to the manufacture's instruction. Reference: Eur. J. Pharmacol. 340 (1997) 227-241 cAMP assay in human EP4 transfectant were conducted using the method described above. IC50: the concentration of the individual compound required to reduce the amount of ligand by 50%.

T1 sequence (P35408 whole entry): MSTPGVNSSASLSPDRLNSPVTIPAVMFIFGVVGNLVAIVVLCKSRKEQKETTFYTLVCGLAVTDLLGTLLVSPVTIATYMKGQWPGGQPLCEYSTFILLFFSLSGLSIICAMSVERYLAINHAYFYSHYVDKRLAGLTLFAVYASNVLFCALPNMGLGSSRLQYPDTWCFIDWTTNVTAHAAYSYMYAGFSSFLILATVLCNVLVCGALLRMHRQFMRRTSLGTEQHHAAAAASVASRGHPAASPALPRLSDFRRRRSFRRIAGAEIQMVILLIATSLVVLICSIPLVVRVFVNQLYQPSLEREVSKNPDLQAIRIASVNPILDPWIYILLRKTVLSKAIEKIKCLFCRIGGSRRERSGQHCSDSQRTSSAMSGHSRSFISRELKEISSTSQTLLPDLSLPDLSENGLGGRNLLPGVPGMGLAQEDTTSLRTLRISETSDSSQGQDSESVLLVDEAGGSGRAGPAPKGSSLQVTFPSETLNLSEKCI

IC50 [nM]	SMILES
120	C[C@H](NC(=O)c1cc(Cl)cnc1N(C)Cc1ccccc1F)c1ccc(C(=O)O)cc1 [EXAMPLE 50, 4-{(1S)-1-[({5-CHLORO-2-[(2-FLUOROBENZYL)(METHYL)AMINO]PYRIDIN-3-YL}CARBONYL)AMINO]ETHYL}BENZOIC ACID]
25	C[C@H](NC(=O)c1cc(Cl)cnc1N(C)Cc1ccc(Cl)cc1)c1ccc(C(=O)O)cc1 [EXAMPLE 51, 4-{(1S)-1-[({5-CHLORO-2-[(4-CHLOROBENZYL)(METHYL)AMINO]PYRIDIN-3-YL}CARBONYL)AMINO]ETHYL}BENZOIC ACID]
65	C[C@H](NC(=O)c1cc(Cl)cnc1N(C)Cc1cccc(Cl)c1)c1ccc(C(=O)O)cc1 [EXAMPLE 52, 4-{(1S)-1-[({5-CHLORO-2-[(3-CHLOROBENZYL)(METHYL)AMINO]PYRIDIN-3-YL}CARBONYL)AMINO]ETHYL}BENZOIC ACID]
180	C[C@H](NC(=O)c1cc(Cl)cnc1N(C)Cc1cccc(F)c1)c1ccc(C(=O)O)cc1 [EXAMPLE 53, 4-{(1S)-1-[({5-CHLORO-2-[(3-FLUOROBENZYL)(METHYL)AMINO]PYRIDIN-3-YL}CARBONYL)AMINO]ETHYL}BENZOIC ACID]
110	C[C@H](NC(=O)c1cc(Cl)cnc1N(C)Cc1ccc(F)cc1)c1ccc(C(=O)O)cc1 [EXAMPLE 54, 4-{(1S)-1-[({5-CHLORO-2-[(4-FLUOROBENZYL)(METHYL)AMINO]PYRIDIN-3-YL}CARBONYL)AMINO]ETHYL}BENZOIC ACID]

Continued, compound first:

SMILES	IC50 [nM]
C[C@H](NC(=O)c1cc(Cl)cnc1OCc1ccccc1Cl)c1ccc(C(=O)O)cc1 [EXAMPLE 39, 4-{(1S)-1-[({5-CHLORO-2-[(2-CHLOROBENZYL)OXY]PYRIDIN-3-YL}CARBONYL)AMINO]ETHYL}BENZOIC ACID]	76
C[C@H](NC(=O)c1cc(Cl)cnc1OCc1ccc(Cl)cc1)c1ccc(C(=O)O)cc1 [EXAMPLE 40, 4-{(1S)-1-[({5-CHLORO-2-[(4-CHLOROBENZYL)OXY]PYRIDIN-3-YL}CARBONYL)AMINO]ETHYL}BENZOIC ACID]	72
C[C@H](NC(=O)c1cc(Cl)ccc1OCc1ccccc1C#N)c1ccc(C(=O)O)cc1 [EXAMPLE 41, 4-[(1S)-1-({5-CHLORO-2-[(2-CYANOBENZYL)OXY]BENZOYL}AMINO)ETHYL]BENZOIC ACID]	39
C[C@H](NC(=O)c1cc(Cl)ccc1OCCC1CCOCC1)c1ccc(C(=O)O)cc1 [EXAMPLE 42, 4-[(1S)-1-({5-CHLORO-2-[2-(TETRAHYDRO-2H-PYRAN-4-YL)ETHOXY]BENZOYL}AMINO)ETHYL]BENZOIC ACID]	467
C[C@H](NC(=O)c1cc(Cl)ccc1OCc1cccc(F)c1)c1ccc(C(=O)O)cc1 [EXAMPLE 43, 4-[(1S)-1-({5-CHLORO-2-[(3-FLUOROBENZYL)OXY]BENZOYL}AMINO)ETHYL]BENZOIC ACID]	140
Cc1cc(COc2ccc(Cl)cc2C(=O)N[C@@H](C)c2ccc(C(=O)O)cc2)no1 [EXAMPLE 44, 4-[(1S)-1-({5-CHLORO-2-[(5-METHYLISOXAZOL-3-YL)METHOXY]BENZOYL}AMINO)ETHYL]BENZOIC ACID]	130
C[C@H](NC(=O)c1cc(Cl)ccc1OCc1ccc(Cl)cc1F)c1ccc(C(=O)O)cc1 [EXAMPLE 45, 4-[(1S)-1-({5-CHLORO-2-[(4-CHLORO-2-FLUOROBENZYL)OXY]BENZOYL}AMINO)ETHYL]BENZOIC ACID]	65
C[C@H](NC(=O)c1cc(Cl)ccc1OCc1ccc(F)cc1Cl)c1ccc(C(=O)O)cc1 [EXAMPLE 46, 4-[(1S)-1-({5-CHLORO-2-[(2-CHLORO-4-FLUOROBENZYL)OXY]BENZOYL}AMINO)ETHYL]BENZOIC ACID]	55
C[C@H](NC(=O)c1cc(Cl)ccc1OCc1ncccc1Cl)c1ccc(C(=O)O)cc1 [EXAMPLE 47, 4-[(1S)-1-({5-CHLORO-2-[(3-CHLOROPYRIDIN-2-YL)METHOXY]BENZOYL}AMINO)ETHYL]BENZOIC ACID]	480
C[C@H](NC(=O)c1cc(Cl)cnc1N(C)Cc1ccccc1Cl)c1ccc(C(=O)O)cc1 [EXAMPLE 48, 4-{(1S)-1-[({5-CHLORO-2-[(2-CHLOROBENZYL)(METHYL)AMINO]PYRIDIN-3-YL}CARBONYL)AMINO]ETHYL}BENZOIC ACID]	100
C[C@H](NC(=O)c1cc(Cl)ccc1OCC1CCCO1)c1ccc(C(=O)O)cc1 (stereo partly drawn) [EXAMPLE 49, 4-((1S)-1-{[5-CHLORO-2-(TETRAHYDROFURAN-2-YLMETHOXY)BENZOYL]AMINO}ETHYL)BENZOIC ACID]	360
